Source: US20240217922A1, “MODULATORS OF SORTILIN ACTIVITY” (Insusense ApS, priority 2021, published 2024)

Target: hSortilin (Homo sapiens (Human), UniProt Q99523)
Assay: Neurotensin scintillation proximity assay, [125I]-neurotensin
Settings: displacement of [125I]-neurotensin binding to 6his-Sortilin; average of at least 2 determinations; read-out: IC50 [125I]Neurotensin SPA
Procedure: Compound affinity was determined by measuring the displacement of
[3H]-neurotensin or [125I]-neurotensin binding to hSortilin in SPA format. Total volume of 40 μl in 50 mM HEPES pH 7.4 assay buffer containing 100 mM NaCl, 2.0 mM CaCI2, 0.1% BSA and 0.1% Tween-20. […] IC50 values were calculated by nonlinear regression using the sigmoid concentration-response (variable slope) using CDD Vault software. All values reported are average of at least 2 determinations.

Chain of hSortilin (Q99523 78-831): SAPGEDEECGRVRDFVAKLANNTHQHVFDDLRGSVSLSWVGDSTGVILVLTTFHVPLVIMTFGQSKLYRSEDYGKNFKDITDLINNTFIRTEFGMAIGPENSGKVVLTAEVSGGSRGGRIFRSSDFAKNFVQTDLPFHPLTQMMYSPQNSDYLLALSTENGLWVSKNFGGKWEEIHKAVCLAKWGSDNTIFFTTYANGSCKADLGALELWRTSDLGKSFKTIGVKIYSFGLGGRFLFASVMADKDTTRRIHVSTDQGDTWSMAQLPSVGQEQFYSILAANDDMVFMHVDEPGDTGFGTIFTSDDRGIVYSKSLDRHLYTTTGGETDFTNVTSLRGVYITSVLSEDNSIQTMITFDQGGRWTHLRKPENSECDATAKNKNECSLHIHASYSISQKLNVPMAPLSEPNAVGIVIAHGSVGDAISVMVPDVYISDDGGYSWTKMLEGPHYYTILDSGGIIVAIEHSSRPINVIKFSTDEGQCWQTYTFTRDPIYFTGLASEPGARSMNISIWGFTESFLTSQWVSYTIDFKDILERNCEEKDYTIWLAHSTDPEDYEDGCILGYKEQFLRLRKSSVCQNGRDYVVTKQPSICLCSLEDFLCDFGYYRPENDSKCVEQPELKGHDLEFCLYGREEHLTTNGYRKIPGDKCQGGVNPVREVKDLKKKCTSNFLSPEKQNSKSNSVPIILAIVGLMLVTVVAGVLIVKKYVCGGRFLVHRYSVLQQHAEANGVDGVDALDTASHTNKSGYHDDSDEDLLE

How did the IC50 turn out when `CC[C@H](C)[C@H](NC(C)=O)C(=O)N[C@@H](CCC(C)(C)C)C(=O)O` [Example 16, (S)-2-((2S,3S)-2-Acetamido-3-methylpentanamido)-5,5-dimethylhexanoic Acid] was run?
Its IC50 is 290 nM.
